# Data as given in patent US20150150266A1, “PESTICIDE COMPOUNDS, USE THEREOF AND METHOD OF PROTECTION OF PLANTS” (AGRA GROUP, A.S., priority 2012, published 2015).
# Marks after values point to notes of the source that are not given here.
# Columns and labels:
# Aspergillus flavus = test: Fungal mycelium growth inhibition assay (agar dilution); type: cell-based; settings: 7 days at 21° C.
# Experimental: (§1) The assay for inhibitory activity of compounds of general formula (I) to radial growth and morphological effects to mycelia was carried out in agar by a multiple dilution method. The compound was diluted to concentrations shown in the Table in potato dextrose agar prepared in accordance with manufacturer's instructions. Petri dishes were filled with the thus prepared agar and aseptically inoculated with a disc of the diameter of 0.4 cm cut from a 7-day agar culture of the respective fungus. Controls were prepared in an analogous manner, using sterile distilled water instead of compound of general formula (I). The Petri dishes were incubated for 7 days at 21° C. and then the diameter of the colonies was measured. The percentage of inhibition of radial growth of the respective fungus was calculated according to the following equation: inhibition [%]=(DC-DT)/DC×100, wherein DC is the diameter of control colony and DT is the diameter of the colony grown on the agar containing the respective amount of compound of general formula (I). Standard deviation corresponds to averages from 3 replications.
# (§2) The compound Cu2SO3.CuSO3.2H2O inhibited the growth of all tested mycelia (Table 1). Individual micelia have shown a variation in the sensitivity to the compound and concentration dependency on the fungicide dose was observed.
# Aspergillus fumigatus = test: as above; type: cell-based; settings: 7 days at 21° C.
# Experimental: as §1, §2
# Fusarium oxysporum = test: as above; type: cell-based; settings: 7 days at 21° C.
# Experimental: as §1, §2
# Fusarium verticillioides = test: as above; type: cell-based; settings: 7 days at 21° C.
# Experimental: as §1, §2
# [1] = tested on: Penicillium brevicompactum; test: as above; type: cell-based; settings: 7 days at 21° C.
# Experimental: as §1, §2
# Penicillium expansum = test: as above; type: cell-based; settings: 7 days at 21° C.
# Experimental: as §1, §2
# Hordeum vulgare L. = test: Field trial with crops, foliar spraying at BBCH 62; type: in vivo; settings: for Yield / Yield, % of the control: foliar spraying of wettable powder A; for Yield, % of the control: control = water
# Experimental: (§3) The experimental field was chosen in a warm region suitable for beet cultivation, with sufficient precipitation, soil type was brown earth. The plants were treated using a common agrotechnology, with the exception of the application of fungicidal protection. […] Water was used as the negative control.
# (§4) At the end of the vegetative season, the crops were harvested and the yield was determined.
# Triticum aestivum L. = test: Field trial with crops, foliar spraying at BBCH 62; type: in vivo; settings: for Yield / Yield, % of the control: foliar spraying of wettable powder A; for Yield, % of the control: control = water
# Experimental: as §3, §4
smiles,measurement,setting,value
"O.O.O=S([O-])[O-].O=S([O-])[O-].[Cu+2].[Cu+].[Cu+] [Cu2SO3•CuSO3•2H2O, Cu2SO3.CuSO3.2H2O (Chevreul's salt)]",Percentage of radial growth inhibition,Aspergillus flavus; 0.3 mg/mL agar,97.67 ± 0.05%
same,Percentage of radial growth inhibition,Aspergillus flavus; 0.4 mg/mL agar,98.84 ± 0.05%
same,Percentage of radial growth inhibition,Aspergillus flavus; 0.5 mg/mL agar,100.00 ± 0.00%
same,Percentage of radial growth inhibition,Aspergillus fumigatus; 0.3 mg/mL agar,100.00 ± 0.00%
same,Percentage of radial growth inhibition,Aspergillus fumigatus; 0.4 mg/mL agar,100.00 ± 0.00%
same,Percentage of radial growth inhibition,Aspergillus fumigatus; 0.5 mg/mL agar,100.00 ± 0.00%
same,Percentage of radial growth inhibition,Fusarium oxysporum; 0.3 mg/mL agar,6.72 ± 0.05% ^1)
same,Percentage of radial growth inhibition,Fusarium oxysporum; 0.4 mg/mL agar,59.70 ± 0.16% ^1)
same,Percentage of radial growth inhibition,Fusarium oxysporum; 0.5 mg/mL agar,97.76 ± 0.00%
same,Percentage of radial growth inhibition,Fusarium verticillioides; 0.3 mg/mL agar,−2.81 ± 0.00% ^2)
same,Percentage of radial growth inhibition,Fusarium verticillioides; 0.4 mg/mL agar,19.10 ± 0.16% ^2)
same,Percentage of radial growth inhibition,Fusarium verticillioides; 0.5 mg/mL agar,30.90 ± 0.00% ^2)
same,Percentage of radial growth inhibition,[1]; 0.3 mg/mL agar,77.78 ± 0.09%
same,Percentage of radial growth inhibition,[1]; 0.4 mg/mL agar,95.24 ± 0.00%
same,Percentage of radial growth inhibition,[1]; 0.5 mg/mL agar,100.00 ± 0.00%
same,Percentage of radial growth inhibition,Penicillium expansum; 0.3 mg/mL agar,98.37 ± 0.05%
same,Percentage of radial growth inhibition,Penicillium expansum; 0.4 mg/mL agar,96.75 ± 0.05%
same,Percentage of radial growth inhibition,Penicillium expansum; 0.5 mg/mL agar,100.00 ± 0.00%
same,Yield,"Hordeum vulgare L.; 2011, 125 g/ha",8.65 t/ha
same,"Yield, % of the control","Hordeum vulgare L.; 2011, 125 g/ha",103.2%
same,Yield,"Hordeum vulgare L.; 2011, 625 g/ha",8.73 t/ha
same,"Yield, % of the control","Hordeum vulgare L.; 2011, 625 g/ha",104.2%
same,Phytotoxic effects,"Hordeum vulgare L.; 2011, high dose 625 g/ha",No phytotoxic effects were observed even at this dose
same,Occurrence of fusarioses or other fungal diseases,"Hordeum vulgare L.; field trial, doses of Table 3",neither occurrence of fusarioses or other fungal diseases
same,Phytotoxic effects,"Hordeum vulgare L.; field trial, doses of Table 3",No phytotoxic effects were observed
same,Yield,"Triticum aestivum L.; 2010, 125 g/ha",7.34 t/ha
same,"Yield, % of the control","Triticum aestivum L.; 2010, 125 g/ha",104.7%
same,Yield,"Triticum aestivum L.; 2011, 125 g/ha",8.45 t/ha
same,"Yield, % of the control","Triticum aestivum L.; 2011, 125 g/ha",108.1%
same,Yield,"Triticum aestivum L.; 2011, 625 g/ha",8.60 t/ha
same,"Yield, % of the control","Triticum aestivum L.; 2011, 625 g/ha",110.1%
same,Phytotoxic effects,"Triticum aestivum L.; 2011, high dose 625 g/ha",No phytotoxic effects were observed even at this dose
same,Occurrence of fusarioses or other fungal diseases,"Triticum aestivum L.; field trial, doses of Table 3",neither occurrence of fusarioses or other fungal diseases
same,Phytotoxic effects,"Triticum aestivum L.; field trial, doses of Table 3",No phytotoxic effects were observed
